In the NIST ThermoML archive (doi:10.1021/je200822w):
Numbers after ± are expanded uncertainties.

Columns and labels:
[1] = activity coefficient (dimensionless); of the first substance listed, at infinite dilution; xn = mol fraction of the nth substance listed; conditions: 101 kPa, Liquid, Chromatography, x1 = 0
[2] = 101.33 kPa, Liquid

Row | SMILES | activity coefficient ([1]; 318.15 K) | activity coefficient ([1]; 323.15 K) | activity coefficient ([1]; 333.15 K) | activity coefficient ([1]; 343.15 K) | activity coefficient ([1]; 353.15 K) | mass density ([2]; 283.15 K) [kg/m3] | mass density ([2]; 293.15 K) [kg/m3] | mass density ([2]; 303.15 K) [kg/m3] | mass density ([2]; 313.15 K) [kg/m3] | mass density ([2]; 323.15 K) [kg/m3] | mass density ([2]; 333.15 K) [kg/m3] | mass density ([2]; 343.15 K) [kg/m3] | activity coefficient ([1]; 353.13 K)
1 | C1CCOC1 [tetrahydrofuran] + CCCC[N+]1(C)CCCC1.N#CN=C=[N-] | 1.36 ± 0.09 | 1.38 ± 0.09 | 1.42 ± 0.09 | 1.46 ± 0.1 | 1.49 ± 0.1 | – | – | – | – | – | – | – | –
2 | CCCCCCC [heptane] + CCCC[N+]1(C)CCCC1.N#CN=C=[N-] | 76 ± 5.2 | 73.6 ± 5 | 68.9 ± 4.7 | 64.7 ± 4.4 | 60.9 ± 4.2 | – | – | – | – | – | – | – | –
3 | Cc1ccccc1 [toluene] + CCCC[N+]1(C)CCCC1.N#CN=C=[N-] | 2.17 ± 0.15 | 2.2 ± 0.15 | 2.26 ± 0.15 | 2.3 ± 0.16 | 2.35 ± 0.16 | – | – | – | – | – | – | – | –
4 | CCCC[N+]1(C)CCCC1.N#CN=C=[N-] [1-butyl-1-methylpyrrolidinium dicyanamide] | – | – | – | – | – | 1021.93 ± 0.57 | 1016.26 ± 0.55 | 1010.64 ± 0.53 | 1005.08 ± 0.51 | 999.56 ± 0.5 | 994.1 ± 0.51 | 988.69 ± 0.53 | –
5 | COCCOC [1,2-dimethoxyethane] + CCCC[N+]1(C)CCCC1.N#CN=C=[N-] | 1.19 ± 0.08 | 1.23 ± 0.08 | 1.31 ± 0.09 | 1.39 ± 0.09 | – | – | – | – | – | – | – | – | 1.46 ± 0.1
6 | ClC(Cl)(Cl)Cl [tetrachloromethane] + CCCC[N+]1(C)CCCC1.N#CN=C=[N-] | 2.04 ± 0.14 | 2.11 ± 0.14 | 2.25 ± 0.15 | 2.38 ± 0.16 | 2.5 ± 0.17 | – | – | – | – | – | – | – | –
7 | ClCCl [dichloromethane] + CCCC[N+]1(C)CCCC1.N#CN=C=[N-] | 0.541 ± 0.04 | 0.558 ± 0.04 | 0.591 ± 0.042 | 0.623 ± 0.043 | 0.655 ± 0.045 | – | – | – | – | – | – | – | –
8 | C1CCCCC1 [cyclohexane] + CCCC[N+]1(C)CCCC1.N#CN=C=[N-] | 21.1 ± 1.4 | 20.6 ± 1.4 | 19.5 ± 1.3 | 18.5 ± 1.3 | 17.7 ± 1.2 | – | – | – | – | – | – | – | –
9 | CCCO [propan-1-ol] + CCCC[N+]1(C)CCCC1.N#CN=C=[N-] | 0.688 ± 0.046 | 0.68 ± 0.046 | 0.668 ± 0.045 | 0.656 ± 0.045 | 0.647 ± 0.044 | – | – | – | – | – | – | – | –
10 | c1ccccc1 [benzene] + CCCC[N+]1(C)CCCC1.N#CN=C=[N-] | 1.41 ± 0.09 | 1.42 ± 0.09 | 1.46 ± 0.1 | 1.49 ± 0.1 | 1.53 ± 0.1 | – | – | – | – | – | – | – | –
11 | CCc1ccccc1 [ethylbenzene] + CCCC[N+]1(C)CCCC1.N#CN=C=[N-] | 3.52 ± 0.24 | 3.55 ± 0.24 | 3.6 ± 0.25 | 3.65 ± 0.25 | 3.69 ± 0.25 | – | – | – | – | – | – | – | –
12 | c1ccsc1 [thiophene] + CCCC[N+]1(C)CCCC1.N#CN=C=[N-] | 0.851 ± 0.055 | 0.868 ± 0.055 | 0.901 ± 0.057 | 0.931 ± 0.059 | 0.962 ± 0.06 | – | – | – | – | – | – | – | –
13 | COC(C)=O [methyl ethanoate] + CCCC[N+]1(C)CCCC1.N#CN=C=[N-] | 1.51 ± 0.1 | 1.53 ± 0.1 | 1.56 ± 0.1 | 1.59 ± 0.11 | 1.63 ± 0.11 | – | – | – | – | – | – | – | –
14 | FC(F)(F)C(Cl)Br (configuration not stated) [1-bromo-1-chloro-2,2,2-trifluoroethane] + CCCC[N+]1(C)CCCC1.N#CN=C=[N-] | 0.568 ± 0.041 | 0.606 ± 0.042 | 0.694 ± 0.047 | 0.776 ± 0.051 | 0.866 ± 0.055 | – | – | – | – | – | – | – | –
15 | COC(C)(C)C [2-methoxy-2-methylpropane] + CCCC[N+]1(C)CCCC1.N#CN=C=[N-] | 6.04 ± 0.41 | 6.13 ± 0.42 | 6.29 ± 0.43 | 6.4 ± 0.44 | 6.53 ± 0.45 | – | – | – | – | – | – | – | –
16 | CC1CCCCC1 [methylcyclohexane] + CCCC[N+]1(C)CCCC1.N#CN=C=[N-] | 32.5 ± 2.2 | 31.7 ± 2.2 | 30 ± 2.1 | 28.4 ± 1.9 | 27.1 ± 1.9 | – | – | – | – | – | – | – | –

Row | SMILES | activity coefficient ([1]; 318.15 K) | activity coefficient ([1]; 323.15 K) | activity coefficient ([1]; 333.15 K) | activity coefficient ([1]; 343.15 K) | activity coefficient ([1]; 353.15 K) | mass density ([2]; 283.15 K) [kg/m3] | mass density ([2]; 293.15 K) [kg/m3] | mass density ([2]; 303.15 K) [kg/m3] | mass density ([2]; 313.15 K) [kg/m3] | mass density ([2]; 323.15 K) [kg/m3] | mass density ([2]; 333.15 K) [kg/m3] | mass density ([2]; 343.15 K) [kg/m3] | activity coefficient ([1]; 353.13 K)
17 | CC#N [acetonitrile] + CCCC[N+]1(C)CCCC1.N#CN=C=[N-] | 0.67 ± 0.045 | 0.676 ± 0.046 | 0.68 ± 0.046 | 0.684 ± 0.046 | 0.687 ± 0.046 | – | – | – | – | – | – | – | –
18 | CCCCCCCC [octane] + CCCC[N+]1(C)CCCC1.N#CN=C=[N-] | 115 ± 8 | 110 ± 8 | 102 ± 7 | 95.2 ± 6.5 | 89.2 ± 6.1 | – | – | – | – | – | – | – | –
19 | CC(C)OC(C)C [diisopropyl ether] + CCCC[N+]1(C)CCCC1.N#CN=C=[N-] | 17.9 ± 1.2 | 17.9 ± 1.2 | 18 ± 1.2 | 17.9 ± 1.2 | 17.9 ± 1.2 | – | – | – | – | – | – | – | –
20 | CO [methanol] + CCCC[N+]1(C)CCCC1.N#CN=C=[N-] | 0.344 ± 0.032 | 0.344 ± 0.032 | 0.345 ± 0.032 | 0.347 ± 0.032 | 0.348 ± 0.032 | – | – | – | – | – | – | – | –
21 | ClC(Cl)Cl [trichloromethane] + CCCC[N+]1(C)CCCC1.N#CN=C=[N-] | 0.391 ± 0.034 | 0.411 ± 0.034 | 0.453 ± 0.036 | 0.496 ± 0.038 | 0.54 ± 0.039 | – | – | – | – | – | – | – | –
22 | CCC(C)=O [butanone] + CCCC[N+]1(C)CCCC1.N#CN=C=[N-] | 1.26 ± 0.08 | 1.27 ± 0.08 | 1.32 ± 0.09 | 1.33 ± 0.09 | 1.35 ± 0.09 | – | – | – | – | – | – | – | –
23 | CCOC(C)=O [ethyl acetate] + CCCC[N+]1(C)CCCC1.N#CN=C=[N-] | 2.33 ± 0.16 | 2.35 ± 0.16 | 2.39 ± 0.16 | 2.43 ± 0.17 | 2.47 ± 0.17 | – | – | – | – | – | – | – | –
24 | C=CCCCCCC [oct-1-ene] + CCCC[N+]1(C)CCCC1.N#CN=C=[N-] | 47.3 ± 3.2 | 46.3 ± 3.2 | 44.4 ± 3 | 42.4 ± 2.9 | 40.8 ± 2.8 | – | – | – | – | – | – | – | –
25 | COC(=O)OC [dimethyl carbonate] + CCCC[N+]1(C)CCCC1.N#CN=C=[N-] | 1.26 ± 0.08 | 1.27 ± 0.08 | 1.29 ± 0.08 | 1.31 ± 0.09 | 1.33 ± 0.09 | – | – | – | – | – | – | – | –
26 | CC(C)O [propan-2-ol] + CCCC[N+]1(C)CCCC1.N#CN=C=[N-] | 0.771 ± 0.05 | 0.761 ± 0.05 | 0.746 ± 0.049 | 0.733 ± 0.049 | 0.724 ± 0.048 | – | – | – | – | – | – | – | –
27 | CCO [ethanol] + CCCC[N+]1(C)CCCC1.N#CN=C=[N-] | 0.55 ± 0.04 | 0.545 ± 0.04 | 0.538 ± 0.039 | 0.53 ± 0.039 | 0.525 ± 0.039 | – | – | – | – | – | – | – | –
28 | C[N+](=O)[O-] [nitromethane] + CCCC[N+]1(C)CCCC1.N#CN=C=[N-] | 0.592 ± 0.042 | 0.596 ± 0.042 | 0.604 ± 0.042 | 0.609 ± 0.043 | 0.615 ± 0.043 | – | – | – | – | – | – | – | –
29 | CC(C)=O [acetone] + CCCC[N+]1(C)CCCC1.N#CN=C=[N-] | 0.905 ± 0.057 | 0.917 ± 0.058 | 0.942 ± 0.059 | 0.963 ± 0.061 | 0.986 ± 0.062 | – | – | – | – | – | – | – | –
30 | Cc1cccc(C)c1 [1,3-dimethylbenzene] + CCCC[N+]1(C)CCCC1.N#CN=C=[N-] | 3.46 ± 0.24 | 3.5 ± 0.24 | 3.56 ± 0.24 | 3.61 ± 0.25 | 3.67 ± 0.25 | – | – | – | – | – | – | – | –
31 | CCC1CCCCC1 [ethylcyclohexane] + CCCC[N+]1(C)CCCC1.N#CN=C=[N-] | 50.1 ± 3.4 | 48.4 ± 3.3 | 45.1 ± 3.1 | 42.2 ± 2.9 | 39.6 ± 2.7 | – | – | – | – | – | – | – | –
